The values below come from PubChem BioAssay (NCI).

The structures appear in SMILES notation. Where “and” joins values, the source holds several entries; their conditions need not be identical. Equal values may be shown once.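 Test compounds were applied to cells in 96-well plates for 48 hours at 5 doses. GI50 marks 50% less growth. TGI marks complete inhibition of growth.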 Where only a bound is given, the exact number is not on record here.

One experiment deals with MOLT-4 leukemia. In words: growth of human tumour cells (NCI), 48 h.
With `C=CC(=O)Nc1cccc(Oc2nc(Nc3ccc(N4CCN(C)CC4)cc3)nc3ccsc23)c1`, the GI50 was 2.53 µM and 1.72 µM; the TGI is 7.08 µM and 5.53 µM.
With `OCc1ccc(N2CCCC2c2ccccc2)cc1Cl` (configuration not stated), the GI50 is 4.75 µM and the TGI stood at 24.9 µM.
Turning to `COC1C=COC2(C)Oc3c(C)c(O)c4c(c3C2=O)/C(=N/C2CCC(O)OC2C)C=C(NC(=O)/C(C)=C\C(=O)C2CC2C(O)C(C)C(O)C(C)C(OC(C)=O)C1C)C4=O` (configuration not stated), the TGI worked out at 8.05 µM.
With `CC(=O)/C=C/c1cn(C(=O)OC(C)(C)C)c2ccc(Br)cc12`, the GI50 was 41.6 µM and the TGI is over 100 µM.
Regarding `CCOc1ccccc1C(=O)N1CCN(c2cc(Cl)cc(Cl)c2)CC1`, the GI50 is 0.0424 µM and the TGI is 21 µM.
`NC(CSC1c2ccccc2-c2ccccc21)C(=O)O` (configuration not stated): the TGI is over 100 µM.
Turning to `Cc1cc(S(=O)(=O)/N=C(/N)Nc2ccccc2O)c(SCc2ccccc2)cc1Cl`, the GI50 was 3.01 µM and the TGI is 42.3 µM.
As for `COc1cc2c(c(OC)c1OC)-c1ccc(SC)c(=O)cc1C(NC(=O)c1ccccc1)CC2` (configuration not stated), the TGI stood at 43.4 µM.
In the case of `O=C1CCC(N2Cc3cc(CNC(=O)C(F)(F)c4ccc(Cl)cc4)ccc3C2=O)C(=O)N1` (configuration not stated), the GI50 was 0.0148 µM.

The subject of a further experiment is NCI-H460 lung. As to the kind of experiment: growth of human tumour cells (NCI), 48 h.
Consider `O=[N+]([O-])c1ccc(C=Cc2ccccc2)cc1.[C-]#[O+].[C-]#[O+].[C-]#[O+].[Cr]`, for which the GI50 is 3.37 µM and the TGI was found to be 89.7 µM.
For `OCC1OC(n2cnc3c(N/N=C\c4ccccn4)ncnc32)C(O)C1O` (configuration not stated) the same measures were 0.384 µM and 4.53 µM.
`COc1cccc(OC(=O)c2ccc(C(F)(F)F)nc2Nc2cc(Cl)ccc2C)c1`: the GI50 is 2.92 µM and the TGI is 15.4 µM.
For `c1cnn2ncc(-c3ccnc(NCCCN4CCOCC4)n3)c2c1` the same measures were 6.56 µM and over 25 µM.
For `O=C(Nc1ccc(OCc2nnc(-c3ccc(Cl)cc3)o2)c(F)c1)Nc1ccc(Cl)c(C(F)(F)F)c1` the same measures were 1.85 µM and 4.86 µM.
For `COc1ccc2c(c1)N(CCO)C1=C(C(=O)OC1)C2c1cccc(F)c1` (configuration not stated) the same measures were 0.227 µM and over 50 µM.
Regarding `C/C(=C\c1ccc2ccccc2c1)[N+](=O)[O-]`, the GI50 was 1.88 µM and the TGI worked out at 3.83 µM.
Regarding `C=CC(=O)Nc1cccc(Oc2nc(Nc3ccc(N4CCN(C)CC4)cc3)nc3ccsc23)c1`, the GI50 is 3.26 µM and 3.19 µM; the TGI was > 10 µM and 12.6 µM.
As for `OCc1ccc(N2CCCC2c2ccccc2)cc1Cl` (configuration not stated), the GI50 was 0.833 µM and the TGI is 7.22 µM.
For the molecule `COC1C=COC2(C)Oc3c(C)c(O)c4c(c3C2=O)/C(=N/C2CCC(O)OC2C)C=C(NC(=O)/C(C)=C\C(=O)C2CC2C(O)C(C)C(O)C(C)C(OC(C)=O)C1C)C4=O` (configuration not stated), the TGI stood at 11.5 µM.
For `CC(=O)/C=C/c1cn(C(=O)OC(C)(C)C)c2ccc(Br)cc12`, the GI50 was 17 µM and the TGI was 36.4 µM.
For the molecule `CCOc1ccccc1C(=O)N1CCN(c2cc(Cl)cc(Cl)c2)CC1`, the GI50 was 0.0362 µM and the TGI is 11.9 µM.
Turning to `NC(CSC1c2ccccc2-c2ccccc21)C(=O)O` (configuration not stated), the TGI is over 100 µM.
As for `Cc1cc(S(=O)(=O)/N=C(/N)Nc2ccccc2O)c(SCc2ccccc2)cc1Cl`, the GI50 is 7.64 µM and the TGI worked out at 50.7 µM.
In turn, `COc1cc2c(c(OC)c1OC)-c1ccc(SC)c(=O)cc1C(NC(=O)c1ccccc1)CC2` (configuration not stated) came in with a TGI of 1.62 µM.
Consider `O=C1CCC(N2Cc3cc(CNC(=O)C(F)(F)c4ccc(Cl)cc4)ccc3C2=O)C(=O)N1` (configuration not stated), for which the GI50 was over 100 µM and the TGI is over 100 µM.

The test system of a further experiment is OVCAR-5 ovarian. In words: growth of human tumour cells (NCI), 48 h.
For `O=[N+]([O-])c1ccc(C=Cc2ccccc2)cc1.[C-]#[O+].[C-]#[O+].[C-]#[O+].[Cr]`, the GI50 is over 100 µM and the TGI is over 100 µM.
Turning to `OCC1OC(n2cnc3c(N/N=C\c4ccccn4)ncnc32)C(O)C1O` (configuration not stated), the GI50 was 0.467 µM and the TGI was over 100 µM.
`COc1cccc(OC(=O)c2ccc(C(F)(F)F)nc2Nc2cc(Cl)ccc2C)c1`: the GI50 is 15.1 µM and the TGI stood at 47.4 µM.
For `c1cnn2ncc(-c3ccnc(NCCCN4CCOCC4)n3)c2c1` the same measures were 7.28 µM and 24.9 µM.
In the same order, the values of `O=C(Nc1ccc(OCc2nnc(-c3ccc(Cl)cc3)o2)c(F)c1)Nc1ccc(Cl)c(C(F)(F)F)c1` are 3.66 µM and 17.6 µM.
Consider `COc1ccc2c(c1)N(CCO)C1=C(C(=O)OC1)C2c1cccc(F)c1` (configuration not stated), for which the GI50 is 2.07 µM and the TGI was over 50 µM.
As to `C/C(=C\c1ccc2ccccc2c1)[N+](=O)[O-]`, the GI50 is 1.87 µM and the TGI is 3.63 µM.
For `C=CC(=O)Nc1cccc(Oc2nc(Nc3ccc(N4CCN(C)CC4)cc3)nc3ccsc23)c1`, the GI50 was 3.61 µM and 8.09 µM; the TGI is > 10 µM and 25.2 µM.
Take `OCc1ccc(N2CCCC2c2ccccc2)cc1Cl` (configuration not stated): the GI50 is 0.351 µM and the TGI is 1.52 µM.
Take `COC1C=COC2(C)Oc3c(C)c(O)c4c(c3C2=O)/C(=N/C2CCC(O)OC2C)C=C(NC(=O)/C(C)=C\C(=O)C2CC2C(O)C(C)C(O)C(C)C(OC(C)=O)C1C)C4=O` (configuration not stated): the TGI came to 8.45 µM.
For `CC(=O)/C=C/c1cn(C(=O)OC(C)(C)C)c2ccc(Br)cc12`, the GI50 is 25.6 µM and the TGI was 53.9 µM.
`CCOc1ccccc1C(=O)N1CCN(c2cc(Cl)cc(Cl)c2)CC1`: the GI50 was 0.0552 µM and the TGI turned out to be 16.2 µM.
For the molecule `NC(CSC1c2ccccc2-c2ccccc21)C(=O)O` (configuration not stated), the TGI is over 100 µM.
As to `Cc1cc(S(=O)(=O)/N=C(/N)Nc2ccccc2O)c(SCc2ccccc2)cc1Cl`, the GI50 was 19.8 µM and the TGI turned out to be 35.9 µM.
For `COc1cc2c(c(OC)c1OC)-c1ccc(SC)c(=O)cc1C(NC(=O)c1ccccc1)CC2` (configuration not stated), the TGI amounted to 58.7 µM.
With `O=C1CCC(N2Cc3cc(CNC(=O)C(F)(F)c4ccc(Cl)cc4)ccc3C2=O)C(=O)N1` (configuration not stated), the GI50 was over 100 µM and the TGI is over 100 µM.
